Assay results from ChEMBL document CHEMBL4706489, “Hydrogen sulfide releasing oridonin derivatives induce apoptosis through extrinsic and intrinsic pathways” (Eur J Med Chem, 2020).

How the values were obtained:
K562 = experiment: Antiproliferative activity against human K562 cells assessed as reduction in cell viability after 72 hrs by MTT assay; details: K562, 72 h
[1] = Cytotoxicity against human PBMC cells assessed as cell viability after 72 hrs by MTT assay
HepG2 = experiment: Antiproliferative activity against human HepG2 cells assessed as reduction in cell viability after 72 hrs by MTT assay; details: HepG2, 72 h
L02 = experiment: Cytotoxicity against human L02 cells assessed as cell viability after 72 hrs by MTT assay; details: L02, 72 h
B16 = experiment: Antiproliferative activity against mouse B16 cells assessed as reduction in cell viability after 72 hrs by MTT assay; details: B16, 72 h
MCF7 = experiment: Antiproliferative activity against human MCF7 cells assessed as reduction in cell viability after 72 hrs by MTT assay; details: MCF7, 72 h
HCT-116 = experiment: Antiproliferative activity against human HCT-116 cells assessed as reduction in cell viability after 72 hrs by MTT assay; details: HCT-116, 72 h
[2] = Prodrug conversion in THF/PBS buffer assessed as H2S release concentration at 0.1 mM in presence of TCEP after 20 mins by methylene blue staining based UV-Vis spectrophotometric method; format: ADME; details: 100 µM

| Structure (SMILES) | IC50 (K562) | IC50 [1] | IC50 (HepG2) | IC50 (L02) | IC50 (B16) | IC50 (MCF7) | IC50 (HCT-116) | Drug metabolism [2] |
| --- | --- | --- | --- | --- | --- | --- | --- | --- |
| C=C1C(=O)[C@]23[C@H](OC(=O)CCCC(=O)OCCOc4ccc(-c5cc(=S)ss5)cc4)[C@H]1CC[C@H]2[C@@]12CO[C@@]3(O)[C@@H](O)[C@@H]1C(C)(C)CC[C@@H]2O | 4.89 µM | > 50 µM | 6.6 µM | 39.1 µM | > 50 µM | 18.3 µM | 38.4 µM | – |
| C=C1C(=O)[C@]23[C@H](OC(=O)CCC(=O)OCCCOc4ccc(-c5cc(=S)ss5)cc4)[C@H]1CC[C@H]2[C@@]12CO[C@@]3(O)[C@@H](O)[C@@H]1C(C)(C)CC[C@@H]2O | 2.17 µM | > 50 µM | 4.45 µM | 26.5 µM | 27.5 µM | 14.7 µM | 27.5 µM | 15 µM |
| C=C1C(=O)[C@]23[C@H](OC(=O)CCC(=O)OCCOc4ccc(-c5cc(=S)ss5)cc4)[C@H]1CC[C@H]2[C@@]12CO[C@@]3(O)[C@@H](O)[C@@H]1C(C)(C)CCC2=O | 8.79 µM | > 50 µM | 7.52 µM | 39.6 µM | > 50 µM | 25.4 µM | > 50 µM | – |
| C=C1C(=O)[C@]23[C@H](O)[C@H]1CC[C@H]2[C@@]12CO[C@@]3(O)[C@@H](O)[C@@H]1C(C)(C)CCC2=O | 4.17 µM | > 50 µM | 10.5 µM | 28.5 µM | 25.5 µM | 15.4 µM | 10.7 µM | – |
| C=C1C(=O)[C@]23[C@H](OC(=O)CCC(=O)OCCCOc4ccc(-c5cc(=S)ss5)cc4)[C@H]1CC[C@H]2[C@@]12CO[C@@]3(O)[C@@H](O)[C@@H]1C(C)(C)CCC2=O | 7.12 µM | > 50 µM | 5.01 µM | > 50 µM | > 50 µM | 19.5 µM | 14 µM | – |
| Oc1ccc(-c2cc(=S)ss2)cc1 | > 50 µM | > 50 µM | > 50 µM | > 50 µM | > 50 µM | > 50 µM | > 50 µM | – |
| C=C1C(=O)[C@]23[C@H](OC(=O)CCCC(=O)OCCOc4ccc(-c5cc(=S)ss5)cc4)[C@H]1CC[C@H]2[C@@]12CO[C@@]3(O)[C@@H](O)[C@@H]1C(C)(C)CCC2=O | 5.75 µM | > 50 µM | 7.65 µM | 42.2 µM | > 50 µM | 27.5 µM | 34.9 µM | – |
| O=c1[nH]cc(F)c(=O)[nH]1 [FLUOROURACIL] | – | > 50 µM | 32.6 µM | > 50 µM | 12.6 µM | 26.7 µM | – | – |
| C=C1C(=O)[C@]23[C@H](OC(=O)CCCC(=O)OCCCCCCOc4ccc(-c5cc(=S)ss5)cc4)[C@H]1CC[C@H]2[C@@]12CO[C@@]3(O)[C@@H](O)[C@@H]1C(C)(C)CC[C@@H]2OC(C)=O | 13.9 µM | > 50 µM | 15.6 µM | > 50 µM | > 50 µM | > 50 µM | > 50 µM | – |
| C=C1C(=O)[C@]23[C@H](OC(=O)CCCC(=O)OCCCOc4ccc(-c5cc(=S)ss5)cc4)[C@H]1CC[C@H]2[C@@]12CO[C@@]3(O)[C@@H](O)[C@@H]1C(C)(C)CC[C@@H]2OC(C)=O | 5.93 µM | > 50 µM | 3.57 µM | 33.5 µM | > 50 µM | 15.8 µM | 37.5 µM | – |
| C=C1C(=O)[C@]23[C@H](OC(=O)CCC(=O)OCCOc4ccc(-c5cc(=S)ss5)cc4)[C@H]1CC[C@H]2[C@@]12CO[C@@]3(O)[C@@H](O)[C@@H]1C(C)(C)CC[C@@H]2O | 4.57 µM | > 50 µM | 5.36 µM | 34 µM | > 50 µM | 17.9 µM | 42.6 µM | 15 µM |
| C=C1C(=O)[C@]23[C@H](OC(=O)CCCC(=O)OCCCCCCOc4ccc(-c5cc(=S)ss5)cc4)[C@H]1CC[C@H]2[C@@]12CO[C@@]3(O)[C@@H](O)[C@@H]1C(C)(C)CCC2=O | 8.89 µM | > 50 µM | 9.33 µM | > 50 µM | > 50 µM | > 50 µM | > 50 µM | – |
| C=C1C(=O)[C@]23[C@H](OC(=O)CCCC(=O)OCCOc4ccc(-c5cc(=S)ss5)cc4)[C@H]1CC[C@H]2[C@@]12CO[C@@]3(O)[C@@H](O)[C@@H]1C(C)(C)CC[C@@H]2OC(C)=O | 1.86 µM | > 50 µM | 4.78 µM | 26.8 µM | 11.1 µM | > 50 µM | > 50 µM | – |
| C=C1C(=O)[C@]23[C@H](OC(=O)CCCC(=O)OCCCOc4ccc(-c5cc(=S)ss5)cc4)[C@H]1CC[C@H]2[C@@]12CO[C@@]3(O)[C@@H](O)[C@@H]1C(C)(C)CCC2=O | 3.59 µM | > 50 µM | 2.58 µM | 27.2 µM | 39.9 µM | 12.5 µM | 23.7 µM | – |
| C=C1C(=O)[C@]23[C@H](OC(=O)CCC(=O)OCCOc4ccc(-c5cc(=S)ss5)cc4)[C@H]1CC[C@H]2[C@@]12CO[C@@]3(O)[C@@H](O)[C@@H]1C(C)(C)CC[C@@H]2OC(C)=O | 2.85 µM | > 50 µM | 5.89 µM | 29.9 µM | > 50 µM | 24.7 µM | 36.9 µM | – |
| C=C1C(=O)[C@]23[C@H](OC(=O)CCCC(=O)OCCCOc4ccc(-c5cc(=S)ss5)cc4)[C@H]1CC[C@H]2[C@@]12CO[C@@]3(O)[C@@H](O)[C@@H]1C(C)(C)CC[C@@H]2O | 4.19 µM | > 50 µM | 5.93 µM | 40.9 µM | > 50 µM | 16.6 µM | – | 15 µM |
| C=C1C(=O)[C@]23[C@H](OC(=O)CCCC(=O)OCCCCCCO[C@H]4CCC(C)(C)[C@H]5[C@H](O)[C@]6(O)OC[C@@]45[C@@H]4CC[C@H]5C(=C)C(=O)[C@]46[C@@H]5OC(=O)CCCC(=O)OCCCCCCOc4ccc(-c5cc(=S)ss5)cc4)[C@H]1CC[C@H]2[C@@]12CO[C@@]3(O)[C@@H](O)[C@@H]1C(C)(C)CC[C@@H]2O | 13.5 µM | > 50 µM | 10.1 µM | > 50 µM | > 50 µM | > 50 µM | > 50 µM | 15 µM |
| C=C1C(=O)[C@]23[C@H](OC(=O)CCC(=O)OCCCOc4ccc(-c5cc(=S)ss5)cc4)[C@H]1CC[C@H]2[C@@]12CO[C@@]3(O)[C@@H](O)[C@@H]1C(C)(C)CC[C@@H]2OC(C)=O | 2.44 µM | > 50 µM | 6.3 µM | 22.3 µM | 16.4 µM | 20.8 µM | 22.1 µM | – |
| C=C1C(=O)[C@]23[C@H](OC(=O)CCC(=O)OCCCCCCOc4ccc(-c5cc(=S)ss5)cc4)[C@H]1CC[C@H]2[C@@]12CO[C@@]3(O)[C@@H](O)[C@@H]1C(C)(C)CCC2=O | 5.87 µM | > 50 µM | 10.5 µM | > 50 µM | > 50 µM | 34.8 µM | > 50 µM | – |
| C=C1C(=O)[C@]23[C@H](O)[C@H]1CC[C@H]2[C@@]12CO[C@@]3(O)[C@@H](O)[C@@H]1C(C)(C)CC[C@@H]2OC(C)=O [LASIOKAURIN] | 5.21 µM | > 50 µM | 11.9 µM | 25.4 µM | 32.6 µM | 19.8 µM | 13.5 µM | – |
